# Laboratory results published in patent publication US6555550B1, “Musarinic agonists and antagonists” (UCB, S. A.,, priority 1998, dated 2003).
# What was measured:
# [1] = biological target: T1, cloned human M4 mAChRs (Homo sapiens, UniProt P08173); assay: Binding to cloned human M4 mAChRs expressed in CHO-Kl cells; conditions: 2.5 nM 3H-oxotremorine M, CHO-Kl M4 membranes, pH 7
# T1 construct: expressed in transfected cells; host or cells: CHO-K1 cells (membrane preparation)
# T1 sequence (P08173 1-479): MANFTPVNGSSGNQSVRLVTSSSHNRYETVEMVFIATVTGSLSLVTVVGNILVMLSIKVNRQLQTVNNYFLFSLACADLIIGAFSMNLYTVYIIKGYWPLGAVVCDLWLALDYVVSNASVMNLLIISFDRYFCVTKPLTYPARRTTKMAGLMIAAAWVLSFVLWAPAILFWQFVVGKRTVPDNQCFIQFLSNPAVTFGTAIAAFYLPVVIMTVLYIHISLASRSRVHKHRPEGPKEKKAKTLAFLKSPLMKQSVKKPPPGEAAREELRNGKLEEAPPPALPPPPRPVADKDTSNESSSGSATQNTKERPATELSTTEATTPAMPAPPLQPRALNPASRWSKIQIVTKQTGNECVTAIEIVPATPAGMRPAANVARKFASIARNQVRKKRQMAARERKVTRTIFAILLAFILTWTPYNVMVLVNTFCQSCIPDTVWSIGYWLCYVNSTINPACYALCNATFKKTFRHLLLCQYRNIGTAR
# Procedure: Binding to Cloned Human M4 […] Expressed in CHO-Kl Cells
# The following protocol was used to detect binding to cloned human M4 mAChRs expressed in CHO-Kl cells.
# A membrane preparation was made from CHO-Kl cells expressing human M4 mAChRs. Aliquots of membrane were stored at −70° C. until thawed on the day of assay. For each assay, CHO-Kl M4 membrane preparation (approximately 20 μg of protein) was incubated with test compound and 2.5 nM ^3H-oxotremorine M (DuPont, NEN) in 20 mM HEPES buffer, pH 7 in an assay volume of 200 μl. Assays were incubated in 96-well polypropylene plates for 40 minutes at room temperature. Nonspecific binding was determined in samples incubated in parallel in the presence of 10 μM atropine (Sigma) instead of test compound. The incubations were terminated by rapid vacuum filtration using a Packard plate harvester through 96-well Whatman GF/B filter plates presoaked in 0.5% polyethylenimine. The filter plate was washed rapidly four times with 0.2 ml aliquots of water. The plate was dried by placing under a heat lamp for 5 minutes. The plate was counted using a Packard scintillation counter after addition of 35 μl Microscint 20 scintillation fluid. Data were analyzed by nonlinear regression analysis.
# Results from this assay are used to show the ability of compounds of this invention to bind to the agonist binding site of the muscarinic M4 receptor. Compounds which bind to this site have specific utility in the treatment of pain, schizophrenic disorders and cognitive disorders such as AD.
# [2] = test system: Female CD-1 mice; assay: Sedation by visual inspection; type: in vivo; conditions: at tail-flick ED50 dose
# Text: Sedation was noted by close visual inspection of the animal.
# [3] = test system: Female CD-1 mice; assay: Body temperature (rectal probe); type: in vivo; conditions: at tail-flick ED50 dose; core temperature
# Procedure: At ambient temperature, a temperature probe (type T Thermocouple Thermometer, BAT-10; Physitemp Inc., Clifton, N.J.) was inserted 1.0 cm into the rectum of mice to measure their core temperature and recorded at 0 (before drug as a control baseline), 10, 25 and 55 min after injection of compounds.
# [4] = test system: Female CD-1 mice; assay: Tail-flick assay; type: in vivo; conditions: injection, % MPE, 10-second cut-off; for ED50: Mus musculus
# Text: The tail flick assay is a commonly used animal model of analgesia. It is a stringent enough assay such that opiates (e.g., morphine) show activity in this model, whereas the non-steroidal antiinflammatories (NSAD's) such as ibuprofen are ineffective. As such, it is a useful assay system for investigating the utility of novel compounds for the treatment of severe and chronic pain.
# Female CD-1 mice, weighing 20-30 grams were obtained from Charles River laboratories (Wilmington, Mass., USA). A commercially available tail-flick analgesia meter was used (Model TF-6 Analgesia Meter, Emdie Instrument Co., Maidens, Va.). […] A 10-second cut-off time was used as the maximum latency to avoid damage to the mice tails. The latency of each mouse (a mean of two separate test results for each time-point), was obtained at 0 (immediately prior to dosing), 5, 15, 30, and 60 min. time-points after injection of compounds and the % Maximum Possible Effect (% MPE) was calculated by using the formula, % MPE=[(postdrug latency−predrug latency)÷(cutoff time−predrug latency)]×100.
SMILES,Human M4 in CHO-K1 Assay [1] [nM],Side Effect Profile at ED50 Dose: Sedation [2],Side Effect Profile at ED50 Dose: Hypothermia [3] [°C],ED50 [4] [mg/kg],Tail-Flick ED50 [4] [mg/kg]
"Clc1nsnc1C1C2CC3CC1CN(C3)C2 (stereo not shown) [Cmpd 7, 3-(5-Azatricyclo[3.3.1.1<3,7>]dec-2-yl)-4-chloro-1,2,5-thiadiazole]",>88,–,–,–,–
"CCCOc1nsnc1C1C2CC3CC1CN(C3)C2 (stereo not shown) [Cmpd 12, 3-(5-azatricyclo[3.3.1.1<3,7>]dec-2-yl)-4-propoxy-1,2,5-thiadiazole]",0.74,Slight,1.0,4.5,–
"CCCCOc1nsnc1C1C2CC3CC1CN(C3)C2 (stereo not shown) [Cmpd 13, 3-(5-azatricyclo[3.3.1.1<3,7>]dec-2-yl)-4-butoxy-1,2,5-thiadiazole]",10,–,–,–,–
"CCCCOc1nsnc1C1C2CC3CC1CN(C3)C2 (stereo not shown) [Cmpd 14, 3-(5-azatricyclo[3.3.1.1<3,7>]dec-2-yl)-4-butoxy-1,2,5-thiadiazole]",3.8,Slight,2.0,> 10,–
"C1CC1COc1nsnc1C1C2CC3CC1CN(C3)C2 (stereo not shown) [Cmpd 16, 3-(5-azatricyclo[3.3.1.1<3,7>]dec-2-yl)-4-(cyclopropylmethoxy)1,2,5-thiadiazole]",<1.4,Sedation,1.5,1.4,–
"CC(C)COc1nsnc1C1C2CC3CC1CN(C3)C2 (stereo not shown) [Cmpd 18, 3-(5-azatricyclo[3.3.1.1<3,7>]dec-2-yl)-4-(2-methyl-propoxy)-1,2,5-thiadiazole]",–,No sedation,0,> 5,–
"COc1nsnc1C1C2CC3CC1CN(C3)C2 (stereo not shown) [Cmpd 21, 3-(5-azatricyclo[3.3.1.1<3,7>]dec-2-yl)-4-methoxy-1,2,5-thiadiazoles]",5.9,No sedation,0,–,>5
"CCOc1nsnc1C1C2CC3CC1CN(C3)C2 (stereo not shown) [Cmpd 23, 3-(5-azatricyclo[3.3.1.1<3,7>]dec-2-yl)-4-ethoxy-1,2,5-thiadiazoles]",0.46,No sedation,0.5,–,1.5
"C(CC1CC1)Oc1nsnc1C1C2CC3CC1CN(C3)C2 (stereo not shown) [Cmpd 25, 3-(5-azatricyclo[3.3.1.1<3,7>]dec-2-yl)-4-(cyclopropylethoxy)-1,2,5-thiadiazoles]",–,Slight,1.5,–,4.5
"CCC(C)Oc1nsnc1C1C2CC3CC1CN(C3)C2 (stereo not shown) [Cmpd 27, 3-(5-azatricyclo[3.3.1.1<3,7>]dec-2-yl)-4-(1-methyl-propoxy)-1,2,5-thiadiazoles]",1.55,No sedation,0,–,>5
"CCCSc1nsnc1C1C2CC3CC1CN(C3)C2 (stereo not shown) [Cmpd 29, 3-(5-Azatricyclo[3.3.1.1<3,7>]dec-2-yl)-4-propylthio-1,2,5-thiadiazoles]",–,Very slight,0.5,–,<1
"CCSc1nsnc1C1C2CC3CC1CN(C3)C2 (stereo not shown) [Cmpd 30, 3-(5-Azatricyclo[3.3.1.1<3,7>]dec-2-yl)-4-ethylthio-1,2,5-thiadiazole]",–,Sedation,1,0.3,–
"CCCCSc1nsnc1C1C2CC3CC1CN(C3)C2 (stereo not shown) [Cmpd 31, 3-(5-Azatricyclo[3.3.1.1<3,7>]dec-2-yl)-4-butylthio-1,2,5-thiadiazole]",–,No sedation,0,0.3,–
"C1CC1CSc1nsnc1C1C2CC3CC1CN(C3)C2 (stereo not shown) [Cmpd 32, 3-(5-Azatricyclo[3.3.1.1<3,7>]dec-2-yl)-4-(cyclopropylmethyl)thio-1,2,5-thiadiazole]",–,Sedation,<2,< 1,–
"CCOc1nsnc1C1C2CC3CC1CN3C2 (stereo not shown) [Cmpd 34, 4-(3-Azatricyclo[3.3.1.0<3,7>]non-9-yl)-3-ethoxy-1,2,5-thiadiazoles]",4.6,–,–,–,>2
"CCCOc1nsnc1C1C2CC3CC1CN3C2 (stereo not shown) [Cmpd 36, 4-(3-Azatricyclo[3.3.1.0<3,7>]non-9-yl)-3-propyloxy-1,2,5-thiadiazoles]",3.2,–,–,–,>5
"CC(C)COc1nsnc1C1C2CC3CC1CN3C2 (stereo not shown) [Cmpd 38, 4-(3-Azatricyclo[3.3.1.0<3,7>]non-9-yl)-3-isobutyloxy-1,2,5-thiadiazoles]",–,–,–,–,>5
